Assay results as given in PubChem BioAssay AID1919001 (Molecular Pharmacology Branch, DTP, NCI, 2023).
Values joined by “and” are separate entries in the source; they are usually repeats but may differ in a detail not shown here. Equal values may be shown once.

System: 699152-130-R-J1-PDC complex spheroid growth
Experiment: Anticancer human tumor 699152-130-R-J1-PDC patient-derived pancreatic carcinoma cell line growth inhibition [AhR]
Settings: for viability, T/C: stronger effect = lower value
Outline: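 Agents were dosed in half-log steps down from roughly clinical Cmax, or from 10 microM where Cmax was unknown, alone and with AhR antagonists. Read-out: percent test/control growth of tumor spheroids containing HUVEC and MSC stromal cells.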

[1] = curve of first compound, second compound 0.1 µM
[2] = curve of first compound, second compound 0.316 µM
[3] = curve of first compound, second compound 1 µM
[4] = curve of first compound, second compound 3.16 µM
[5] = curve of first compound, second compound 10 µM
[6] = second compound 0.1 µM, first compound 0.0316 µM
[7] = second compound 0.1 µM, first compound 0.1 µM
[8] = second compound 0.1 µM, first compound 0.316 µM
[9] = second compound 0.1 µM, first compound 1 µM
[10] = second compound 0.1 µM, first compound 3.16 µM
[11] = second compound 0.1 µM, first compound 10 µM
[12] = second compound 0.316 µM, first compound 0.0316 µM
[13] = second compound 0.316 µM, first compound 0.1 µM
[14] = second compound 0.316 µM, first compound 0.316 µM
[15] = second compound 0.316 µM, first compound 1 µM
[16] = second compound 0.316 µM, first compound 3.16 µM
[17] = second compound 0.316 µM, first compound 10 µM
[18] = second compound 1 µM, first compound 0.0316 µM
[19] = second compound 1 µM, first compound 0.1 µM
[20] = second compound 1 µM, first compound 0.316 µM
[21] = second compound 1 µM, first compound 1 µM
[22] = second compound 1 µM, first compound 3.16 µM
[23] = second compound 1 µM, first compound 10 µM
[24] = second compound 3.16 µM, first compound 0.0316 µM
[25] = second compound 3.16 µM, first compound 0.1 µM
[26] = second compound 3.16 µM, first compound 0.316 µM
[27] = second compound 3.16 µM, first compound 1 µM
[28] = second compound 3.16 µM, first compound 3.16 µM
[29] = second compound 3.16 µM, first compound 10 µM
[30] = second compound 10 µM, first compound 0.0316 µM
[31] = second compound 10 µM, first compound 0.1 µM
[32] = second compound 10 µM, first compound 0.316 µM
[33] = second compound 10 µM, first compound 1 µM
[34] = second compound 10 µM, first compound 3.16 µM
[35] = second compound 10 µM, first compound 10 µM
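Also: compound exposure lasted 7 days after spheroids had grown for 3 days.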

Q: How did the IC50 [1] turn out when `COc1cc(Nc2ncc3c(n2)-c2ccc(Cl)cc2C(c2c(F)cccc2OC)=NC3)ccc1C(=O)O` + Cc1cncc(-c2nc(NCCc3c[nH]c4ccccc34)c3ncn(C(C)C)c3n2)c1 was run?
A: > 10 µM

Q: And the IC50 [2]?
A: > 10 µM

Q: And the IC50 [3]?
A: > 10 µM

Q: What about the IC50 [4] of the same compound?
A: > 10 µM

Q: And the IC50 [5]?
A: < 0.0316 µM

Q: What about the viability, T/C [6] of the same compound?
A: 80.3%

Q: And the viability, T/C [7]?
A: 77.1%

Q: What about the viability, T/C [8] of the same compound?
A: 73.4%

Q: And the viability, T/C [9]?
A: 56.5%

Q: And the viability, T/C [10]?
A: 56.1%

Q: And the viability, T/C [11]?
A: 57.1%

Q: What about the viability, T/C [12] of the same compound?
A: 76.2%

Q: And the viability, T/C [13]?
A: 81%

Q: What about the viability, T/C [14] of the same compound?
A: 72.4%

Q: What about the viability, T/C [15] of the same compound?
A: 59.8%

Q: What about the viability, T/C [16] of the same compound?
A: 55.9%

Q: What about the viability, T/C [17] of the same compound?
A: 54.8%

Q: What about the viability, T/C [18] of the same compound?
A: 95.5%

Q: What about the viability, T/C [19] of the same compound?
A: 85.3%

Q: What about the viability, T/C [20] of the same compound?
A: 79.5%

Q: And the viability, T/C [21]?
A: 69%

Q: And the viability, T/C [22]?
A: 59.7%

Q: And the viability, T/C [23]?
A: 55.5%

Q: And the viability, T/C [24]?
A: 92.5%

Q: What about the viability, T/C [25] of the same compound?
A: 80.9%

Q: And the viability, T/C [26]?
A: 84.8%

Q: And the viability, T/C [27]?
A: 64.6%

Q: What about the viability, T/C [28] of the same compound?
A: 64.2%

Q: What about the viability, T/C [29] of the same compound?
A: 57.9%

Q: What about the viability, T/C [30] of the same compound?
A: 23.8%

Q: And the viability, T/C [31]?
A: 21.3%

Q: What about the viability, T/C [32] of the same compound?
A: 21.3%

Q: What about the viability, T/C [33] of the same compound?
A: 16.9%

Q: What about the viability, T/C [34] of the same compound?
A: 16.3%

Q: And the viability, T/C [35]?
A: 22.3%

Q: With `COc1ccc([C@@H](O)c2cc(-c3ncnc4cc(N5CCOCC5)ccc34)c(F)cc2Cl)nn1` as the compound, how does the viability, T/C (compound 0.0316 µM) read?
A: 94.1% and 90.8% and 102%

Q: What about the viability, T/C (compound 0.1 µM) of the same compound?
A: 93.3% and 98.1% and 115%

Q: And the viability, T/C (compound 0.316 µM)?
A: 93.6% and 91.3% and 90.6%

Q: What about the viability, T/C (compound 1 µM) of the same compound?
A: 79.1% and 78.4% and 71.7%

Q: And the viability, T/C (compound 3.16 µM)?
A: 60.8% and 57.4% and 59.3%

Q: And the viability, T/C (compound 10 µM)?
A: 33.6% and 28.5% and 30.6%

Q: And the IC50 (curve of compound)?
A: 4.91 µM and 4.15 µM and 3.98 µM

Q: How did the IC50 [1] turn out when `CCc1c2c(nc3ccc(O)cc13)-c1cc3c(c(=O)n1C2)COC(=O)[C@]3(O)CC` + CC(CO)NC(=O)c1cc(-c2ccc(Cl)cc2)nn(-c2cnn(C)c2)c1=O was run?
A: 0.0182 µM

Q: And the IC50 [2]?
A: 0.0264 µM

Q: What about the IC50 [3] of the same compound?
A: 0.0421 µM

Q: What about the IC50 [4] of the same compound?
A: 0.0221 µM

Q: What about the IC50 [5] of the same compound?
A: 0.0473 µM

Q: And the viability, T/C (second compound 0.1 µM, first compound 0.000949 µM)?
A: 89%

Q: And the viability, T/C (second compound 0.1 µM, first compound 0.003 µM)?
A: 83.5%

Q: What about the viability, T/C (second compound 0.1 µM, first compound 0.00949 µM) of the same compound?
A: 56.5%

Q: What about the viability, T/C (second compound 0.1 µM, first compound 0.03 µM) of the same compound?
A: 46.2%

Q: And the viability, T/C (second compound 0.1 µM, first compound 0.0949 µM)?
A: 48%

Q: And the viability, T/C (second compound 0.1 µM, first compound 0.3 µM)?
A: 35.7%

Q: And the viability, T/C (second compound 0.316 µM, first compound 0.000949 µM)?
A: 83.3%

Q: What about the viability, T/C (second compound 0.316 µM, first compound 0.003 µM) of the same compound?
A: 75.5%

Q: What about the viability, T/C (second compound 0.316 µM, first compound 0.00949 µM) of the same compound?
A: 58.9%

Q: What about the viability, T/C (second compound 0.316 µM, first compound 0.03 µM) of the same compound?
A: 49.4%

Q: What about the viability, T/C (second compound 0.316 µM, first compound 0.0949 µM) of the same compound?
A: 44.8%

Q: What about the viability, T/C (second compound 0.316 µM, first compound 0.3 µM) of the same compound?
A: 41.3%

Q: And the viability, T/C (second compound 1 µM, first compound 0.000949 µM)?
A: 85.7%

Q: And the viability, T/C (second compound 1 µM, first compound 0.003 µM)?
A: 75.4%

Q: What about the viability, T/C (second compound 1 µM, first compound 0.00949 µM) of the same compound?
A: 61.3%

Q: And the viability, T/C (second compound 1 µM, first compound 0.03 µM)?
A: 51.4%

Q: What about the viability, T/C (second compound 1 µM, first compound 0.0949 µM) of the same compound?
A: 47.2%

Q: And the viability, T/C (second compound 1 µM, first compound 0.3 µM)?
A: 41.5%

Q: What about the viability, T/C (second compound 3.16 µM, first compound 0.000949 µM) of the same compound?
A: 72.3%

Q: And the viability, T/C (second compound 3.16 µM, first compound 0.003 µM)?
A: 64.4%

Q: And the viability, T/C (second compound 3.16 µM, first compound 0.00949 µM)?
A: 57.2%

Q: What about the viability, T/C (second compound 3.16 µM, first compound 0.03 µM) of the same compound?
A: 45.3%

Q: And the viability, T/C (second compound 3.16 µM, first compound 0.0949 µM)?
A: 42%

Q: What about the viability, T/C (second compound 3.16 µM, first compound 0.3 µM) of the same compound?
A: 31.4%

Q: And the viability, T/C (second compound 10 µM, first compound 0.000949 µM)?
A: 71.9%

Q: And the viability, T/C (second compound 10 µM, first compound 0.003 µM)?
A: 69.4%

Q: And the viability, T/C (second compound 10 µM, first compound 0.00949 µM)?
A: 61.7%

Q: And the viability, T/C (second compound 10 µM, first compound 0.03 µM)?
A: 52.6%

Q: And the viability, T/C (second compound 10 µM, first compound 0.0949 µM)?
A: 45.9%

Q: And the viability, T/C (second compound 10 µM, first compound 0.3 µM)?
A: 28.4%

Q: Which results are given for `O=C(c1cc(Cc2n[nH]c(=O)c3ccccc23)ccc1F)N1CCN(C(=O)C2CC2)CC1` + CC(CO)NC(=O)c1cc(-c2ccc(Cl)cc2)nn(-c2cnn(C)c2)c1=O?
A: IC50 [1]: > 10 µM; IC50 [2]: > 10 µM; IC50 [3]: > 10 µM; IC50 [4]: > 10 µM; IC50 [5]: > 10 µM; viability, T/C [6]: 85.1%; viability, T/C [7]: 107%; viability, T/C [8]: 93.3%; viability, T/C [9]: 81.8%; viability, T/C [10]: 97%; viability, T/C [11]: 89.5%; viability, T/C [12]: 93%; viability, T/C [13]: 88.3%; viability, T/C [14]: 88.8%; viability, T/C [15]: 87.7%; viability, T/C [16]: 77.3%; viability, T/C [17]: 78%; viability, T/C [18]: 87.6%; viability, T/C [19]: 95.9%; viability, T/C [20]: 93.4%; viability, T/C [21]: 86.6%; viability, T/C [22]: 85.5%; viability, T/C [23]: 77.4%; viability, T/C [24]: 82.8%; viability, T/C [25]: 93.1%; viability, T/C [26]: 85.5%; viability, T/C [27]: 80.5%; viability, T/C [28]: 65.6%; viability, T/C [29]: 69.7%; viability, T/C [30]: 84.3%; viability, T/C [31]: 83.1%; viability, T/C [32]: 80%; viability, T/C [33]: 75.3%; viability, T/C [34]: 79.3%; viability, T/C [35]: 69.9%

Q: Which results are given for `CC1COCCN1c1cc(C2(S(C)(=N)=O)CC2)nc(-c2ccnc3[nH]ccc23)n1` (configuration not stated) + CC(CO)NC(=O)c1cc(-c2ccc(Cl)cc2)nn(-c2cnn(C)c2)c1=O?
A: IC50 [1]: > 10 µM; IC50 [2]: > 10 µM; IC50 [3]: > 10 µM; IC50 [4]: > 10 µM; IC50 [5]: > 10 µM; viability, T/C [6]: 87.9%; viability, T/C [7]: 95.5%; viability, T/C [8]: 88.7%; viability, T/C [9]: 94.5%; viability, T/C [10]: 79.2%; viability, T/C [11]: 74.6%; viability, T/C [12]: 108%; viability, T/C [13]: 94.2%; viability, T/C [14]: 101%; viability, T/C [15]: 85.8%; viability, T/C [16]: 85.5%; viability, T/C [17]: 78.5%; viability, T/C [18]: 98.6%; viability, T/C [19]: 101%; viability, T/C [20]: 94.3%; viability, T/C [21]: 87.9%; viability, T/C [22]: 84%; viability, T/C [23]: 68%; viability, T/C [24]: 80.4%; viability, T/C [25]: 112%; viability, T/C [26]: 88.5%; viability, T/C [27]: 86.4%; viability, T/C [28]: 73.4%; viability, T/C [29]: 62.8%; viability, T/C [30]: 78.5%; viability, T/C [31]: 82.2%; viability, T/C [32]: 91.3%; viability, T/C [33]: 76.4%; viability, T/C [34]: 72.5%; viability, T/C [35]: 68.2%
